Data on five compounds can be found in ChEMBL document CHEMBL1151132, “Autooxidation Studies on the Marine Sesterterpene Tetronic Acid, Variabilin” (J Nat Prod, 1989).

The nature of series [1]: Cytotoxicity against […] BSC cells at 5 ug /6 mm disk. Format: cell-based.
For series [2], the system named is Poliovirus 1. The series can be described thus: Antiviral activity against PV1 infected in […] BSC cells at 5 ug/6 mm disk. Format: functional.
Series [3] relates to Poliovirus 1. Kind of series: Antiviral activity against PV1 infected in […] BSC cells at 20 ug/6 mm disk. Format: functional.
Series [4] is described as follows: Cytotoxicity against […] BSC cells at 20 ug /6 mm disk. Format: cell-based.
Series [5] concerns Human alphaherpesvirus 1. Kind of series: Antiviral activity against HSV1 infected in […] BSC cells at 20 ug/6 mm disk. Type of series: functional.
The subject of series [6] is Poliovirus 1. Kind of series: Antiviral activity against PV1 infected in […] BSC cells at 2 ug/6 mm disk. Type of series: functional.
Series [7] in a line: Cytotoxicity against […] BSC cells at 2 ug /6 mm disk. Type of series: cell-based.
Series [8] concerns Human alphaherpesvirus 1. The series can be described thus: Antiviral activity against HSV1 infected in […] BSC cells at 2 ug/6 mm disk. Format: functional.

Each structure is given as a SMILES string.

In the case of `C/C(=C\CCc1ccoc1)CC/C=C(\C)CCCC(C)CC(=O)O` (stereo unspecified), the “inhibition zone (IZ)” value in series [1] and in series [2] was 2 mm throughout.

Regarding `COC1=C(C)C(=O)O/C1=C\C(C)CCC/C(C)=C/CC/C(C)=C/CCC1(O)C(OC)OC(OC)C1O` (mixture of isomers), the entries for the “inhibition zone (IZ)” value in series [3], in series [4] and in series [5] were 4 mm, 1 mm and 4 mm, respectively.

As to `COC1=C(C)C(=O)O/C1=C\C(C)CCC/C(C)=C/CC/C(C)=C/CCC1=CC(O)OC1=O` (mixture of isomers), the “inhibition zone (IZ)” value turned out to be 4 mm in series [4], 2 mm in series [6] and 2 mm in series [7].

In the case of `COC1=C(C)C(=O)O/C1=C\C(C)CCC/C(C)=C/CC/C(C)=C/CCC1=CC(=O)OC1O` (mixture of isomers), the “inhibition zone (IZ)” value amounted to 4 mm in series [3]; 2 mm in series [4]; 4 mm in series [5]; 2 mm in series [6]; 1 mm in series [7].

Regarding `CC1=C(O)/C(=C/C(C)CCC/C(C)=C/CC/C(C)=C/CCc2ccoc2)OC1=O` (stereo unspecified) [VARIABILIN], the “inhibition zone (IZ)” value turned out to be 4 mm in series [8], 4 mm in series [6] and 1 mm in series [7].
